Source: patent publication US9682995B2, “Amino-substituted isothiazoles” (BAYER PHARMA AKTIENGESELLSCHAFT, priority 2013, dated 2017)

Columns and labels:
Assay in all cases: Kinase Profiling (KINOMEscan)
Type in all cases: binding
[1] = biological target: 456 kinases (of these 395 non-mutant kinases) (Homo sapiens, UniProt P49759); settings: CLK1; 10 μM
[2] = biological target: 456 kinases (of these 395 non-mutant kinases) (Homo sapiens, UniProt Q9UKI8); settings: TLK1; 10 μM
[3] = biological target: 456 kinases (of these 395 non-mutant kinases) (Homo sapiens, UniProt P17612); settings: PKAC-alpha; 10 μM
[4] = biological target: 456 kinases (of these 395 non-mutant kinases) (Homo sapiens, UniProt Q04759); settings: PRKCQ; 10 μM
[5] = biological target: 456 kinases (of these 395 non-mutant kinases) (Homo sapiens, UniProt O94806); settings: PRKD3; 10 μM
[6] = biological target: 456 kinases (of these 395 non-mutant kinases) (Homo sapiens, UniProt P00533, L861Q); settings: EGFR(L861Q); 10 μM
[7] = system: 456 kinases (of these 395 non-mutant kinases); settings: 10 μM
[8] = biological target: 456 kinases (of these 395 non-mutant kinases) (Homo sapiens, UniProt P51812); settings: 10 μM
[9] = biological target: 456 kinases (of these 395 non-mutant kinases) (Homo sapiens, UniProt P15056, V600E); settings: BRAF(V600E); 10 μM
[10] = biological target: 456 kinases (of these 395 non-mutant kinases) (Homo sapiens, UniProt P51817); settings: PRKX; 10 μM
[11] = biological target: 456 kinases (of these 395 non-mutant kinases) (Homo sapiens, UniProt Q99759); settings: MAP3K3; 10 μM
[12] = biological target: 456 kinases (of these 395 non-mutant kinases) (Homo sapiens, UniProt P0C1S8); settings: WEE2; 10 μM
[13] = biological target: 456 kinases (of these 395 non-mutant kinases) (Homo sapiens, UniProt P42338); settings: PIK3CB; 10 μM
[14] = biological target: 456 kinases (of these 395 non-mutant kinases) (Homo sapiens, UniProt O15111); settings: IKK-alpha; 10 μM
[15] = biological target: 456 kinases (of these 395 non-mutant kinases) (Homo sapiens, UniProt P07333); settings: 10 μM
[16] = biological target: 456 kinases (of these 395 non-mutant kinases) (Homo sapiens, UniProt O43293); settings: DAPK3; 10 μM
[17] = biological target: 456 kinases (of these 395 non-mutant kinases) (Homo sapiens, UniProt Q15746); settings: MYLK; 10 μM
[18] = biological target: 456 kinases (of these 395 non-mutant kinases) (Homo sapiens, UniProt P29322); settings: EPHA8; 10 μM
[19] = biological target: 456 kinases (of these 395 non-mutant kinases) (Homo sapiens, UniProt Q14012); settings: CAMK1; 10 μM
[20] = biological target: 456 kinases (of these 395 non-mutant kinases) (Homo sapiens, UniProt Q8TF76); settings: HASPIN; 10 μM
[21] = biological target: 456 kinases (of these 395 non-mutant kinases) (Homo sapiens, UniProt Q06418); settings: TYRO3; 10 μM
[22] = biological target: 456 kinases (of these 395 non-mutant kinases) (Homo sapiens, UniProt Q13627); settings: DYRK1A; 10 μM
[23] = biological target: 456 kinases (of these 395 non-mutant kinases) (Homo sapiens, UniProt Q13164); settings: ERK5; 10 μM
[24] = biological target: 456 kinases (of these 395 non-mutant kinases) (Homo sapiens, UniProt P24941); settings: CDK2; 10 μM
[25] = biological target: 456 kinases (of these 395 non-mutant kinases) (Homo sapiens, UniProt P21127); settings: CDC2L1; 10 μM
[26] = biological target: 456 kinases (of these 395 non-mutant kinases) (Homo sapiens, UniProt Q15208); settings: NDR1; 10 μM
[27] = biological target: 456 kinases (of these 395 non-mutant kinases) (Homo sapiens, UniProt P00519); settings: 10 μM
[28] = biological target: 456 kinases (of these 395 non-mutant kinases) (Homo sapiens, UniProt P12931); settings: SRC; 10 μM
[29] = biological target: 456 kinases (of these 395 non-mutant kinases) (Homo sapiens, UniProt Q9H4A3); settings: WNK1; 10 μM
[30] = biological target: 456 kinases (of these 395 non-mutant kinases) (Homo sapiens, UniProt Q13705); settings: ACVR2B; 10 μM
[31] = biological target: 456 kinases (of these 395 non-mutant kinases) (Homo sapiens, UniProt P42336); settings: PIK3CA; 10 μM

Sequence of 456 kinases (of these 395 non-mutant kinases) (Homo sapiens, UniProt P07333) (P07333 20-972 limits assumed, change not shown): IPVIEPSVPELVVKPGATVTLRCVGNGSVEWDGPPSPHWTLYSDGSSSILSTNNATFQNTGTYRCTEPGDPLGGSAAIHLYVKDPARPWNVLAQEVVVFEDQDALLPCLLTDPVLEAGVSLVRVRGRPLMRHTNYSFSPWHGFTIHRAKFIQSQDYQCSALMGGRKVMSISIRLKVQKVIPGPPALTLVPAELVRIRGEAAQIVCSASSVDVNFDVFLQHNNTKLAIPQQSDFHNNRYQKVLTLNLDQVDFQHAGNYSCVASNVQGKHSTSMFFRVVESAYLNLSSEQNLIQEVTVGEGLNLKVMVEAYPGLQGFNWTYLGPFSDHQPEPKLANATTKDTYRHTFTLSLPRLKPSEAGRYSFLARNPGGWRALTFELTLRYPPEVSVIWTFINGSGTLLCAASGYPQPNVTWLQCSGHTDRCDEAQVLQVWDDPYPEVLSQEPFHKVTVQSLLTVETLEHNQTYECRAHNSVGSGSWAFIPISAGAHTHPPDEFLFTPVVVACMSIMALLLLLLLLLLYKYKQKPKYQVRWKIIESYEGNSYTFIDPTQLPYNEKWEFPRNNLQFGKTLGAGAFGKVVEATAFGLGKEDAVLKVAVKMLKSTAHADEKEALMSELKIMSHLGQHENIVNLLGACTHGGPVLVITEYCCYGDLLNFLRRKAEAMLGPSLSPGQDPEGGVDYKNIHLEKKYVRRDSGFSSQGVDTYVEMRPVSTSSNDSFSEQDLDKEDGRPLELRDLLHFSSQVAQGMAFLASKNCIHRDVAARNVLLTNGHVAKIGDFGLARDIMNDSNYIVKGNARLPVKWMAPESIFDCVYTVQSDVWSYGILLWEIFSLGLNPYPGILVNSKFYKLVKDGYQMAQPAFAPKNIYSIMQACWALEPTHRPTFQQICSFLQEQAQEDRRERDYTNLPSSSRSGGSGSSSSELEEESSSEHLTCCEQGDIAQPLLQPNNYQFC
Sequence of 456 kinases (of these 395 non-mutant kinases) (Homo sapiens, UniProt P15056, V600E) (P15056 2-766 V600E limits assumed): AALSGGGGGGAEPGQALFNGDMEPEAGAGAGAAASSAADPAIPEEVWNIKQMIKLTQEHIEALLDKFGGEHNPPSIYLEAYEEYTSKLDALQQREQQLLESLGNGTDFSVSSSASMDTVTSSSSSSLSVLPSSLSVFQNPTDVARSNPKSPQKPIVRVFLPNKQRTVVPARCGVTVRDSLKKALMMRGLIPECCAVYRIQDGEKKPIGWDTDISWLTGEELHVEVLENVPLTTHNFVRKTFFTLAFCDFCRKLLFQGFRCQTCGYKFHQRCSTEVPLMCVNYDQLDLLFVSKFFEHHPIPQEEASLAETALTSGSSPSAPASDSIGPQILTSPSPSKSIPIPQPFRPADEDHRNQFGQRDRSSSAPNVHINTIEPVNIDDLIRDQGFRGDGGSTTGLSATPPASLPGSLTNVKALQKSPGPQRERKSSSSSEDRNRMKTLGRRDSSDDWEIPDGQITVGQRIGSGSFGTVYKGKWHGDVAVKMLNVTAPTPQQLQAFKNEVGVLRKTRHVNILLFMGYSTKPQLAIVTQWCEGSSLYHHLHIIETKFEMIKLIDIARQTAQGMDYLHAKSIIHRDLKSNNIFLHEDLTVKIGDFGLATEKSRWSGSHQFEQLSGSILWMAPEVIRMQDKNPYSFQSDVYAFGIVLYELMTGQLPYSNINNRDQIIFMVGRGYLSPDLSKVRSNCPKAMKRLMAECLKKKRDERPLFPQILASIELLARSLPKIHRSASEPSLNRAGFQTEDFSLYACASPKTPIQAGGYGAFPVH
Sequence of 456 kinases (of these 395 non-mutant kinases) (Homo sapiens, UniProt Q15208) (Q15208 2-465 limits assumed, change not shown): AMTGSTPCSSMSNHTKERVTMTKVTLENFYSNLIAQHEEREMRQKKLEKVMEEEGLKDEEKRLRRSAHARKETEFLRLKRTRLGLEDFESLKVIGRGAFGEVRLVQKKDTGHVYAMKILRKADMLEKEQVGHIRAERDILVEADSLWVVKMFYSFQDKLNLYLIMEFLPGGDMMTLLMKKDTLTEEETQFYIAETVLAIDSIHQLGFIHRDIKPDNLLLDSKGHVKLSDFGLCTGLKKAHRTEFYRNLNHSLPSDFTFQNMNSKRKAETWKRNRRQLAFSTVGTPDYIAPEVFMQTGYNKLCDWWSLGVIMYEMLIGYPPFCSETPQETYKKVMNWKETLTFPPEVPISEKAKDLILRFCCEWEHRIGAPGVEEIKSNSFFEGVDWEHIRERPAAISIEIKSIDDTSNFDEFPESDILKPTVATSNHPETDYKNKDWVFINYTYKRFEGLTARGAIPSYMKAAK
Sequence of 456 kinases (of these 395 non-mutant kinases) (Homo sapiens, UniProt Q13164) (Q13164 2-816 limits assumed, change not shown): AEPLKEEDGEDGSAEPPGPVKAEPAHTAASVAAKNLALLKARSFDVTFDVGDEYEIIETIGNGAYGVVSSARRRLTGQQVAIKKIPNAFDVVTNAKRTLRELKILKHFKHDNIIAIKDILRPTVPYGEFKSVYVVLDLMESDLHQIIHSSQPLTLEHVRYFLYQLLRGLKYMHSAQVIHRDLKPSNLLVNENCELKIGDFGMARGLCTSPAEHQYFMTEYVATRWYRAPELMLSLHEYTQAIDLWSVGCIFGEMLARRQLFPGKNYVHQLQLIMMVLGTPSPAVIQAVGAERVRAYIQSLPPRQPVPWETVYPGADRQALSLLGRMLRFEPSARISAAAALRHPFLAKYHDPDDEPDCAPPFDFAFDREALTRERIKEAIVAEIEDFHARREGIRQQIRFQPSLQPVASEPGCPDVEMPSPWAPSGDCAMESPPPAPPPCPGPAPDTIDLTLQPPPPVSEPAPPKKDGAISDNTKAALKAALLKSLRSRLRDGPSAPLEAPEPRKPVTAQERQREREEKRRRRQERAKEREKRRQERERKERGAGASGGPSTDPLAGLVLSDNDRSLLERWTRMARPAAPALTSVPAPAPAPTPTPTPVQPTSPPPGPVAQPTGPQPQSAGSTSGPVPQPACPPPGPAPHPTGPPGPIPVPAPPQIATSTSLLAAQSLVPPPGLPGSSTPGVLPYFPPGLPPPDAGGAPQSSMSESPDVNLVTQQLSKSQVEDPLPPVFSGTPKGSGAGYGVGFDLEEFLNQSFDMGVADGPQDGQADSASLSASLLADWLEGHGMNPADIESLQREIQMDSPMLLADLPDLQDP
Sequence of 456 kinases (of these 395 non-mutant kinases) (Homo sapiens, UniProt Q13705) (Q13705 19-512 limits assumed, change not shown): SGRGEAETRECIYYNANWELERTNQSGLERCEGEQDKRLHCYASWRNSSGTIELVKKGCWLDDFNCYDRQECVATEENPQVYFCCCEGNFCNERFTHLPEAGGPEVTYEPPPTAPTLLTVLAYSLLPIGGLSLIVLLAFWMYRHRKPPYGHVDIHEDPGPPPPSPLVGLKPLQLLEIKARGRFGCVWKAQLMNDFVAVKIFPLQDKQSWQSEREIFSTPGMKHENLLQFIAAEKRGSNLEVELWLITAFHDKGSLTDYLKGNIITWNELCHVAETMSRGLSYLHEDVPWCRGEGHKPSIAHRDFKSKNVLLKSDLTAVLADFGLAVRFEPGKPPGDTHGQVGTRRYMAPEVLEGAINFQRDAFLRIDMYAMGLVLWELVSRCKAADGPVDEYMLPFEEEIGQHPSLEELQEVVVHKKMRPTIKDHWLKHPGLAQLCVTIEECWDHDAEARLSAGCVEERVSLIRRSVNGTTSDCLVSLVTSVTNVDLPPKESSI
Sequence of 456 kinases (of these 395 non-mutant kinases) (Homo sapiens, UniProt P29322) (P29322 28-1005 limits assumed, change not shown): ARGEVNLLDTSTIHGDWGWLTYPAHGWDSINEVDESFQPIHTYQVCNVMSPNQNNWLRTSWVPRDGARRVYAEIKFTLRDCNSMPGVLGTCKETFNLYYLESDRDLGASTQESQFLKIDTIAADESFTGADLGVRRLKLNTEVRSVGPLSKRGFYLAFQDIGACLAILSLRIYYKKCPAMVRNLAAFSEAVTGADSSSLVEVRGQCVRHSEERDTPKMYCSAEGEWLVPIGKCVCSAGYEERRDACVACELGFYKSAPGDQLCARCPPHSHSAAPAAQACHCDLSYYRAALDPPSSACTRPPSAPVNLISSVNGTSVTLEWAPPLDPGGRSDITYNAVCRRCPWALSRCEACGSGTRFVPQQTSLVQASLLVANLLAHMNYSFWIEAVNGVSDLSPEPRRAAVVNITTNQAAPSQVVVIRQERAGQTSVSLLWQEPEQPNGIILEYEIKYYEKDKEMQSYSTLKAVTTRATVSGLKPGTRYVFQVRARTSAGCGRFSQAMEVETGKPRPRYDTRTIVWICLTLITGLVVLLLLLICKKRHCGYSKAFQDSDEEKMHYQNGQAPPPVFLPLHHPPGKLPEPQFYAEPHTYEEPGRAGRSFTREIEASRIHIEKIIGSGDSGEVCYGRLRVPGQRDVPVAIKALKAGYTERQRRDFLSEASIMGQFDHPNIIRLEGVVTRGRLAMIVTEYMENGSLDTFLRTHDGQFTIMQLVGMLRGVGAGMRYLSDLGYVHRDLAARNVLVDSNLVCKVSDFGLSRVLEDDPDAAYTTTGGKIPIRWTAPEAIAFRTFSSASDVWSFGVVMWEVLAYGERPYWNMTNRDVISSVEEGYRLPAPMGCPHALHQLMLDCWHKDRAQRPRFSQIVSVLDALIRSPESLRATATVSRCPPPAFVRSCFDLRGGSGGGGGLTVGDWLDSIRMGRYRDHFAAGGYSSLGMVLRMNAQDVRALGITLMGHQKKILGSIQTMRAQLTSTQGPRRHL
Sequence of 456 kinases (of these 395 non-mutant kinases) (Homo sapiens, UniProt P12931) (P12931 2-536 limits assumed, change not shown): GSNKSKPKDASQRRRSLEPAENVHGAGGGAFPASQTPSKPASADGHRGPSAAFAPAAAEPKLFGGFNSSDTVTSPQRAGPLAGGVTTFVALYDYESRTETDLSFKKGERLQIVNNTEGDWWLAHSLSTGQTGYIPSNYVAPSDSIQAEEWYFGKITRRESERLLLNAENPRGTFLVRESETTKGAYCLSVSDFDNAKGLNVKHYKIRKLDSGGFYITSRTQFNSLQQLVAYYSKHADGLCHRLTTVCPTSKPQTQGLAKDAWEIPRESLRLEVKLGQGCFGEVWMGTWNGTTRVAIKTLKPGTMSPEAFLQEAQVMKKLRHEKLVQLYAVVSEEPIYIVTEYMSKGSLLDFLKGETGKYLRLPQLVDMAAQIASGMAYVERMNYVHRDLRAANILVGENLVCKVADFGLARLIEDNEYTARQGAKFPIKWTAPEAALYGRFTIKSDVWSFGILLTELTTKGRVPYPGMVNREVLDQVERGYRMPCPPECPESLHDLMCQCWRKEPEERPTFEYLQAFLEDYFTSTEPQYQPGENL

CCc1ccccc1NC(=O)c1c(C)nsc1Nc1cnc2cc(F)ccc2n1 [Example 20, N-(2-Ethylphenyl)-5-[(6-fluoroquinoxalin-2-yl)amino]-3-methyl-1,2-thiazole-4-carboxamide]
% Ctrl @ 10 μM [1]: 58 % Ctrl
% Ctrl @ 10 μM [2]: 84 % Ctrl
% Ctrl @ 10 μM [3]: 91 % Ctrl
% Ctrl @ 10 μM [4]: 76 % Ctrl
% Ctrl @ 10 μM [5]: 97 % Ctrl
% Ctrl @ 10 μM [6]: 100 % Ctrl
% Ctrl @ 10 μM ([7]; EGFR(L747-E749del, A750P)): 94 % Ctrl
% Ctrl @ 10 μM ([7]; EGFR(L747-S752del, P753S)): 100 % Ctrl
% Ctrl @ 10 μM ([7]; EGFR(L747-T751del,Sins)): 100 % Ctrl
% Ctrl @ 10 μM ([7]; FLT3(ITD)): 67 % Ctrl
% Ctrl @ 10 μM ([8]; RSK2(Kin.Dom.1-N-terminal)): 100 % Ctrl
% Ctrl @ 10 μM ([8]; RSK2(Kin.Dom.2-C-terminal)): 100 % Ctrl
% Ctrl @ 10 μM [9]: 100 % Ctrl
% Ctrl @ 10 μM [10]: 75 % Ctrl
% Ctrl @ 10 μM [11]: 100 % Ctrl
% Ctrl @ 10 μM [12]: 100 % Ctrl
% Ctrl @ 10 μM [13]: 83 % Ctrl
% Ctrl @ 10 μM [14]: 84 % Ctrl
% Ctrl @ 10 μM ([15]; CSF1R-autoinhibited): 91 % Ctrl
% Ctrl @ 10 μM ([15]; CSF1R): 100 % Ctrl
% Ctrl @ 10 μM [16]: 72 % Ctrl
% Ctrl @ 10 μM [17]: 87 % Ctrl
% Ctrl @ 10 μM [18]: 96 % Ctrl
% Ctrl @ 10 μM [19]: 68 % Ctrl
% Ctrl @ 10 μM [20]: 100 % Ctrl
% Ctrl @ 10 μM [21]: 56 % Ctrl
% Ctrl @ 10 μM [22]: 100 % Ctrl
% Ctrl @ 10 μM [23]: 100 % Ctrl
% Ctrl @ 10 μM [24]: 100 % Ctrl
% Ctrl @ 10 μM [25]: 92 % Ctrl
% Ctrl @ 10 μM [26]: 100 % Ctrl
% Ctrl @ 10 μM ([27]; ABL1-nonphosphorylated): 100 % Ctrl
% Ctrl @ 10 μM ([27]; ABL1-phosphorylated): 100 % Ctrl
% Ctrl @ 10 μM [28]: 100 % Ctrl
% Ctrl @ 10 μM [29]: 100 % Ctrl
% Ctrl @ 10 μM [30]: 91 % Ctrl
% Ctrl @ 10 μM [31]: 100 % Ctrl
